Results published in patent US7015306B2 (BioSynthema, Inc., priority 1999, dated 2006).
Where a SMILES comes first, the peptide text is derived from it. [ ]: non-standard residue; d: D form. The star is where a group is joined. ξ: configuration not given here. DTPA = O=C(O)CN(CCN(CC(=O)O)CC(=O)O)CCN(CC(=O)O)CC(=O)*; ξGly(4-Pip(1-amidino)) = N=C(N)N1CCC(C(N)C(=O)O)CC1; ξPhe(4-guanidino) = N=C(N)Nc1ccc(CC(N)C(=O)O)cc1; ξGly(piperidin-4-yl) = NC(C(=O)O)C1CCNCC1; Dmt = Cc1cc(O)cc(C)c1C[C@H](N)C(=O)O; Pro(4-oxo) = O=C1CN[C@H](C(=O)O)C1; mTyr = N[C@@H](Cc1cccc(O)c1)C(=O)O; Ala(cPr) = N[C@@H](CC1CC1)C(=O)O; tBuAla = CC(C)(C)C[C@H](N)C(=O)O; Cha = N[C@@H](CC1CCCCC1)C(=O)O; Tle = CC(C)(C)[C@H](N)C(=O)O; Pip = O=C(O)[C@@H]1CCCCN1; dPip = O=C(O)[C@H]1CCCCN1; Ac6c = NC1(C(=O)O)CCCCC1; Aze = O=C(O)[C@@H]1CCN1

Legend:
neurotensin receptors = neurotensin receptors (Homo sapiens, UniProt P30989); assay: Competitive binding assay on frozen tissue sections of receptor-positive human tumors vs radioiodinated native neurotensin; settings: Table 3
neurotensin receptors, sequence (P30989 whole entry): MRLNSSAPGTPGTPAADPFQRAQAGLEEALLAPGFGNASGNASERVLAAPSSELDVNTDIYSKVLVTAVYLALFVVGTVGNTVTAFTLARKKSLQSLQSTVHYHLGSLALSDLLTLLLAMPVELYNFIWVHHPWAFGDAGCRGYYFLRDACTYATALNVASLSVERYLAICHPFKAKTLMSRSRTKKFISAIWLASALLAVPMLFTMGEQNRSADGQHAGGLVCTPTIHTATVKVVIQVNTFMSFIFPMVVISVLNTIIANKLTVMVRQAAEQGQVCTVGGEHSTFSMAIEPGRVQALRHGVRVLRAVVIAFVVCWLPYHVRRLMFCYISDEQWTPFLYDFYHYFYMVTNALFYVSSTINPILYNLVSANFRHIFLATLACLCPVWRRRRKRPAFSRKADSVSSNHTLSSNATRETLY
Text: Frozen tissue sections from receptor-positive human tumors were used in a competitive binding assay.

[1] = In vitro urine stability assay (HPLC) of In-111 labeled peptide; assay type: in vitro ADME; settings: rat urine, 37EC, 4 hours
Experimental: (§1) All reagents were purchased from Sigma unless otherwise noted. The peptide and ^111InCl3 in 0.05 N HCl were incubated in a sodium acetate/ascorbic acid buffer for 30 minutes at room temperature. The reaction was diluted with 5% ethanol/95% PBS before using in subsequent in vitro assays.
(§2) Human serum was purchased from Sigma (H 1388). The labeled peptide was incubated in either human serum or rat urine at 37EC for the specified amount of time. An aliquot was filtered through a 0.45 μm syringe filter prior to HPLC injection.

[2] = In vitro serum stability assay (HPLC) of In-111 labeled peptide; assay type: in vitro ADME, human; settings: human serum, 37EC, 4 hours
Experimental: as §1, §2

[3] = target: T1, HT 29 colon adenocarcinoma cells (Homo sapiens, UniProt P30989); settings: Ψ(CH2NH) pseudo-peptide analogs; cited from earlier work
T1 construct: host or cells: HT 29 colon adenocarcinoma cells (endogenous receptors)
T1 sequence (P30989 whole entry): as above

[4] = target: rat brain synaptic membranes; settings: read-out: Kd binding to rat brain synaptic membranes; cited from earlier work

| Compound | Kd (neurotensin receptors) [µM] | % of peptide at 4 hours after incubation at 37EC, Urine [1] [%] | % of peptide at 4 hours after incubation at 37EC, Serum [2] [%] | Kd [3] [µM] | Kd [4] [µM] |
| --- | --- | --- | --- | --- | --- |
| CC(C)(C)C[C@H](NC(=O)[C@@H](NC(=O)[C@H](Cc1ccc(O)cc1)NC(=O)[C@@H]1CCCN1C(=O)[C@H](CCCNC(=N)N)NC(=O)C(NC(=O)[C@@H]1CCCN1C(=O)[C@H](CCCCN)NC(=O)[C@H](CC(N)=O)NC(=O)[C@H](CCC(=O)O)NC(=O)[C@@H](Cc1ccc(O)cc1)NC(=O)CN(CCN(CCN(CC(=O)O)CC(=O)O)CC(=O)O)CC(=O)O)C1CCN(C(=N)N)CC1)C(C)(C)C)C(=O)O (stereo partly drawn) [Compound XV, DTPA-DTyr-Glu-Asn-Lys-Pro-Gly(PipAm)-Arg-Pro-Tyr-tBuGly-tBuAla-OH] ({DTPA}-[dY]ENKP[ξGly(4-Pip(1-amidino))]RPY[Tle][tBuAla]-OH) | 0.0035 | 89.8 | 98.9 | – | – |
| CC(C)C[C@H](NC(=O)[C@@H](NC(=O)[C@H](Cc1ccc(O)cc1)NC(=O)[C@@H]1CCCN1C(=O)[C@H](CCCNC(=N)N)NC(=O)C(NC(=O)[C@@H]1CCN1C(=O)[C@@H](CCCCN)NC(=O)CN(CCN(CCN(CC(=O)O)CC(=O)O)CC(=O)O)CC(=O)O)C1CCN(C(=N)N)CC1)C(C)(C)C)C(=O)O (stereo partly drawn) [DTPA-DLys-AzeCA-Gly(PipAm)-Arg-Pro-Tyr-tBuGly-Leu-OH] ({DTPA}-[dK][Aze][ξGly(4-Pip(1-amidino))]RPY[Tle]L-OH) | 0.024 | 49.8 | 79.5 | – | – |
| CC[C@H](C)[C@H](NC(=O)[C@H](Cc1ccc(O)cc1)NC(=O)[C@@H]1CCCN1C(=O)C(Cc1ccc(NC(=N)N)cc1)NC(=O)C(Cc1ccc(NC(=N)N)cc1)NC(=O)[C@@H]1CCCN1C(=O)[C@@H](CCCCN)NC(=O)CN(CCN(CCN(CC(=O)O)CC(=O)O)CC(=O)O)CC(=O)O)C(=O)N[C@@H](CC(C)C)C(=O)O (stereo partly drawn) [DTPA-DLys-Pro-(4-Gu)Phe-(4-Gu)Phe-Pro-Tyr-Ile-Leu-OH] ({DTPA}-[dK]P[ξPhe(4-guanidino)][ξPhe(4-guanidino)]PYIL-OH) | 0.175 | 2.3 | 25.2 | – | – |
| CC(C)C[C@H](NC(=O)[C@@H](NC(=O)[C@H](Cc1ccc(O)cc1)NC(=O)[C@@H]1CC(=O)CN1C(=O)[C@H](CCCNC(=N)N)NC(=O)C(NC(=O)[C@@H]1CCCN1C(=O)[C@@H](CCCCN)NC(=O)CN(CCN(CCN(CC(=O)O)CC(=O)O)CC(=O)O)CC(=O)O)C1CCN(C(=N)N)CC1)C(C)(C)C)C(=O)O (stereo partly drawn) [DTPA-DLys-Pro-Gly(PipAm)-Arg-(4-oxo)Pro-Tyr-tBuGly-Leu-OH] ({DTPA}-[dK]P[ξGly(4-Pip(1-amidino))]R[Pro(4-oxo)]Y[Tle]L-OH) | > 1 | 79.7 | 78.5 | – | – |
| CC(C)C[C@H](NC(=O)[C@@H](NC(=O)[C@H](Cc1ccc(O)cc1)NC(=O)[C@@H]1CCN1C(=O)[C@H](CCCNC(=N)N)NC(=O)C(NC(=O)[C@@H]1CCCN1C(=O)[C@@H](CCCCN)NC(=O)CN(CCN(CCN(CC(=O)O)CC(=O)O)CC(=O)O)CC(=O)O)C1CCN(C(=N)N)CC1)C(C)(C)C)C(=O)O (stereo partly drawn) [DTPA-DLys-Pro-Gly(PipAm)-Arg-AzeCA-Tyr-tBuGly-Leu-OH] ({DTPA}-[dK]P[ξGly(4-Pip(1-amidino))]R[Aze]Y[Tle]L-OH) | 0.74 | 36.5 | 79.2 | – | – |
| CC(C)C[C@H](NC(=O)[C@@H](NC(=O)[C@H](Cc1ccc(O)cc1)NC(=O)[C@H]1CCCCN1C(=O)[C@H](CCCNC(=N)N)NC(=O)C(NC(=O)[C@@H]1CCCN1C(=O)[C@@H](CCCCN)NC(=O)CN(CCN(CCN(CC(=O)O)CC(=O)O)CC(=O)O)CC(=O)O)C1CCN(C(=N)N)CC1)C(C)(C)C)C(=O)O (stereo partly drawn) [DTPA-DLys-Pro-Gly(PipAm)-Arg-DPipCA-Tyr-tBuGly-Leu-OH] ({DTPA}-[dK]P[ξGly(4-Pip(1-amidino))]R[dPip]Y[Tle]L-OH) | > 1 | 91.9 | 96.2 | – | – |
| CC(C)C[C@H](NC(=O)[C@@H](NC(=O)[C@H](Cc1ccc(O)cc1)NC(=O)[C@@H]1CCCCN1C(=O)[C@H](CCCNC(=N)N)NC(=O)C(NC(=O)[C@@H]1CCCN1C(=O)[C@@H](CCCCN)NC(=O)CN(CCN(CCN(CC(=O)O)CC(=O)O)CC(=O)O)CC(=O)O)C1CCN(C(=N)N)CC1)C(C)(C)C)C(=O)O (stereo partly drawn) [DTPA-DLys-Pro-Gly(PipAm)-Arg-PipCA-Tyr-tBuGly-Leu-OH] ({DTPA}-[dK]P[ξGly(4-Pip(1-amidino))]R[Pip]Y[Tle]L-OH) | > 1 | 45.8 | 69.5 | – | – |
| Cc1cc(O)cc(C)c1C[C@H](NC(=O)[C@@H]1CCCN1C(=O)[C@H](CCCNC(=N)N)NC(=O)C(NC(=O)[C@@H]1CCCN1C(=O)[C@@H](CCCCN)NC(=O)CN(CCN(CCN(CC(=O)O)CC(=O)O)CC(=O)O)CC(=O)O)C1CCN(C(=N)N)CC1)C(=O)N[C@H](C(=O)N[C@@H](CC(C)C)C(=O)O)C(C)(C)C (stereo partly drawn) [DTPA-DLys-Pro-Gly(PipAm)-Arg-Pro-(2,6-diMe)Tyr-tBuGly-Leu-OH] ({DTPA}-[dK]P[ξGly(4-Pip(1-amidino))]RP[Dmt][Tle]L-OH) | 0.045 | 99.2 | 96.6 | – | – |
| CC(C)C[C@H](NC(=O)C1(NC(=O)[C@H](Cc2ccc(O)cc2)NC(=O)[C@@H]2CCCN2C(=O)[C@H](CCCNC(=N)N)NC(=O)C(NC(=O)[C@@H]2CCCN2C(=O)[C@@H](CCCCN)NC(=O)CN(CCN(CCN(CC(=O)O)CC(=O)O)CC(=O)O)CC(=O)O)C2CCN(C(=N)N)CC2)CCCCC1)C(=O)O (stereo partly drawn) [DTPA-DLys-Pro-Gly(PipAm)-Arg-Pro-Tyr-Achc-Leu-OH] ({DTPA}-[dK]P[ξGly(4-Pip(1-amidino))]RPY[Ac6c]L-OH) | > 10 | 84.9 | 89.9 | – | – |
| CC(C)(C)[C@H](NC(=O)[C@H](Cc1ccc(O)cc1)NC(=O)[C@@H]1CCCN1C(=O)[C@H](CCCNC(=N)N)NC(=O)C(NC(=O)[C@@H]1CCCN1C(=O)[C@@H](CCCCN)NC(=O)CN(CCN(CCN(CC(=O)O)CC(=O)O)CC(=O)O)CC(=O)O)C1CCN(C(=N)N)CC1)C(=O)N[C@@H](CC1CCCCC1)C(=O)O (stereo partly drawn) [DTPA-DLys-Pro-Gly(PipAm)-Arg-Pro-Tyr-tBuGly-Cha-OH] ({DTPA}-[dK]P[ξGly(4-Pip(1-amidino))]RPY[Tle][Cha]-OH) | 0.012 | 65.9 | 81.2 | – | – |
| CC(C)(C)[C@H](NC(=O)[C@H](Cc1ccc(O)cc1)NC(=O)[C@@H]1CCCN1C(=O)[C@H](CCCNC(=N)N)NC(=O)C(NC(=O)[C@@H]1CCCN1C(=O)[C@@H](CCCCN)NC(=O)CN(CCN(CCN(CC(=O)O)CC(=O)O)CC(=O)O)CC(=O)O)C1CCN(C(=N)N)CC1)C(=O)N[C@@H](CC1CC1)C(=O)O (stereo partly drawn) [DTPA-DLys-Pro-Gly(PipAm)-Arg-Pro-Tyr-tBuGly-Cpa-OH] ({DTPA}-[dK]P[ξGly(4-Pip(1-amidino))]RPY[Tle][Ala(cPr)]-OH) | 0.29 | 73.6 | 88.1 | – | – |
| CC(C)(C)C[C@H](NC(=O)[C@@H](NC(=O)[C@H](Cc1ccc(O)cc1)NC(=O)[C@@H]1CCCN1C(=O)[C@H](CCCNC(=N)N)NC(=O)C(NC(=O)[C@@H]1CCCN1C(=O)[C@@H](CCCCN)NC(=O)CN(CCN(CCN(CC(=O)O)CC(=O)O)CC(=O)O)CC(=O)O)C1CCN(C(=N)N)CC1)C(C)(C)C)C(=O)O (stereo partly drawn) [DTPA-DLys-Pro-Gly(PipAm)-Arg-Pro-Tyr-tBuGly-tBuAla-OH] ({DTPA}-[dK]P[ξGly(4-Pip(1-amidino))]RPY[Tle][tBuAla]-OH) | 0.0073 | 72.3 | 89.2 | – | – |
| CC(C)C[C@H](NC(=O)[C@@H](NC(=O)[C@H](Cc1cccc(O)c1)NC(=O)[C@@H]1CCCN1C(=O)[C@H](CCCNC(=N)N)NC(=O)C(NC(=O)[C@@H]1CCCN1C(=O)[C@@H](CCCCN)NC(=O)CN(CCN(CCN(CC(=O)O)CC(=O)O)CC(=O)O)CC(=O)O)C1CCN(C(=N)N)CC1)C(C)(C)C)C(=O)O (stereo partly drawn) [DTPA-DLys-Pro-Gly(PipAm)-Arg-Pro-mTyr-tBuGly-Leu-OH] ({DTPA}-[dK]P[ξGly(4-Pip(1-amidino))]RP[mTyr][Tle]L-OH) | 0.3 | 57.8 | 84.4 | – | – |
| CC(C)C[C@H](NC(=O)[C@@H](NC(=O)[C@H](Cc1ccc(O)cc1)NC(=O)[C@@H]1CCCN1C(=O)C(NC(=O)C(NC(=O)[C@@H]1CCCN1C(=O)[C@@H](CCCCN)NC(=O)CN(CCN(CCN(CC(=O)O)CC(=O)O)CC(=O)O)CC(=O)O)C1CCN(C(=N)N)CC1)C1CCNCC1)C(C)(C)C)C(=O)O (stereo partly drawn) [DTPA-DLys-Pro-Gly(PipAm)-PipGly-Pro-Tyr-tBuGly-Leu-OH] ({DTPA}-[dK]P[ξGly(4-Pip(1-amidino))][ξGly(piperidin-4-yl)]PY[Tle]L-OH) | 0.14 | 79.7 | 91.6 | – | – |
| DTPA-Lys^8(Ψ-CH2NH)Arg^9-Pro-Tyr-Ile-Leu-OH ({DTPA}-KRPYIL-OH; also: reduced CH2NH bond between Lys and Arg) [DTPA-Lys^8-Ψ(CH2NH)-Arg^8-NT(8–13)] | – | – | – | 0.013 | – |
| DTPA-Lys^8-Ψ(CH2NH)-Lys^8-NT(8–13) | – | – | – | 0.0074 | – |
| monoiodo-125-[Trp^11]-neurotensin (QLYENKPRRPWIL; Neurotensin monoiodo 125I label; UniProt P30990 151-163, looked up, variant Y11W) | – | – | – | – | 0.0001 |
